From patent US20120076775A1, “Combination of HGF Inhibitor and EGF Inhibitor to Treat Cancer” (priority 2008, published 2012)

Key:
[1] = tested on: GB-d1 gallbladder tumor xenografts; experiment: GB-d1 gallbladder tumor s.c. xenograft, tumor growth; assay type: in vivo; conditions: NIH III xid/Beige/nude mice, mAbs 100 μg (approx. 5 mg/kg) twice per week from day 13
Description: Human tumor cells typically grown in complete DMEM medium are typically harvested in HBSS. Female immunodeficient, e.g., athymic nude mice (4-6 wks old) are injected s.c. with typically 5×10^6 cells in 0.2 ml of HBSS in the dorsal areas. When the tumor size reaches 50-100 mm^3, the mice are grouped randomly and appropriate amounts of the agents are administered. […] Tumor sizes are determined typically twice a week by measuring in two dimensions [length (a) and width (b)]. Tumor volume is calculated according to V=ab^2/2 and expressed as mean tumor volume±SEM. The number of mice in each treatment group is at least 3, but more often between 5 and 10, e.g., 7. One group of mice is treated with both agents; other groups may be treated with neither agent or with one agent but not the other agent. […] Statistical analysis may be performed using, e.g., Student's t test.
For example, such an experiment was performed with GB-d1 gallbladder tumor xenografts. Female NIH III xid/Beige/nude mice (4-6 wks old) were implanted with tumors by s.c. injection of 10^6 GB-d1 cells in the dorsal areas. When the tumor size reached ˜100 mm^3, the mice were grouped randomly into 4 groups of 5 mice each. […] The mAbs were administered twice per week at 100 μg (approx. 5 mg/kg body weight) from day 13. Tumor sizes were determined twice per week as described above.

cMet receptor = cMet receptor (Homo sapiens, UniProt P08581); conditions: literature; read-out: Kd, high affinity binding site for cMet receptor; cited from earlier work
[2] = molecular target: heparin sulfate proteoglycans (HSPG); conditions: literature; read-out: Kd, low affinity binding site for HSPG; cited from earlier work
U87EGFRvIII xenografts = experiment: U87EGFRvIII s.c. xenograft, tumor growth; assay type: in vivo; conditions: s.c. U87EGFRvIII in immunodeficient mice; mAbs i.p. 5 mg/kg days 8, 12, 15; erlotinib 150 mg/kg 6 times per week
Description: Illustrative but not limiting examples of immunodeficient strains of mice that can be used are nude mice such as CD-1 nude, Nu/Nu, Balb/c nude, NIH-III (NIH-bg-nu-xid BR); scid mice such as Fox Chase SCID (C.B-17 SCID), Fox Chase outbred SCID and SCID Beige; mice deficient in RAG enzyme; as well as nude rats. Experiments are carried out as described previously (Kim et al., Nature 362:841, 1992, which is incorporated herein by reference). Human tumor cells typically grown in complete DMEM medium are typically harvested in HBSS. Female immunodeficient, e.g., athymic nude mice (4-6 wks old) are injected s.c. with typically 5×10^6 cells in 0.2 ml of HBSS in the dorsal areas. When the tumor size reaches 50-100 mm^3, the mice are grouped randomly and appropriate amounts of the agents are administered. […] Tumor sizes are determined typically twice a week by measuring in two dimensions [length (a) and width (b)]. Tumor volume is calculated according to V=ab^2/2 and expressed as mean tumor volume±SEM. […] The effect of the agents may measured by growth of the tumor with time, prolongation of the survival of the mice, or increase in percent of the mice surviving at a given time or indefinitely. […]

[3] = tested on: U87EGFRvIII intracranial xenografts; experiment: U87EGFRvIII intracranial xenograft, survival; assay type: in vivo, mice; conditions: treated day 5 to 21, 5 mg/kg mAb twice per week, 150 mg erlotinib 6 times per week
Description: In this experiment, mice were implanted intracranially with U87EGFRvIII cells as described (Kim et al, op. cit.) in order to more accurately simulate brain tumors. Four groups of mice were treated with control mAb 5G8 or anti-HGF mAb L27, either alone or in combination with erlotinib, from post-implantation day 5 to 21 (5 mg/kg mAb twice per week; 150 mg erlotinib 6 times per week).

cMet receptor, sequence (P08581 25-1390): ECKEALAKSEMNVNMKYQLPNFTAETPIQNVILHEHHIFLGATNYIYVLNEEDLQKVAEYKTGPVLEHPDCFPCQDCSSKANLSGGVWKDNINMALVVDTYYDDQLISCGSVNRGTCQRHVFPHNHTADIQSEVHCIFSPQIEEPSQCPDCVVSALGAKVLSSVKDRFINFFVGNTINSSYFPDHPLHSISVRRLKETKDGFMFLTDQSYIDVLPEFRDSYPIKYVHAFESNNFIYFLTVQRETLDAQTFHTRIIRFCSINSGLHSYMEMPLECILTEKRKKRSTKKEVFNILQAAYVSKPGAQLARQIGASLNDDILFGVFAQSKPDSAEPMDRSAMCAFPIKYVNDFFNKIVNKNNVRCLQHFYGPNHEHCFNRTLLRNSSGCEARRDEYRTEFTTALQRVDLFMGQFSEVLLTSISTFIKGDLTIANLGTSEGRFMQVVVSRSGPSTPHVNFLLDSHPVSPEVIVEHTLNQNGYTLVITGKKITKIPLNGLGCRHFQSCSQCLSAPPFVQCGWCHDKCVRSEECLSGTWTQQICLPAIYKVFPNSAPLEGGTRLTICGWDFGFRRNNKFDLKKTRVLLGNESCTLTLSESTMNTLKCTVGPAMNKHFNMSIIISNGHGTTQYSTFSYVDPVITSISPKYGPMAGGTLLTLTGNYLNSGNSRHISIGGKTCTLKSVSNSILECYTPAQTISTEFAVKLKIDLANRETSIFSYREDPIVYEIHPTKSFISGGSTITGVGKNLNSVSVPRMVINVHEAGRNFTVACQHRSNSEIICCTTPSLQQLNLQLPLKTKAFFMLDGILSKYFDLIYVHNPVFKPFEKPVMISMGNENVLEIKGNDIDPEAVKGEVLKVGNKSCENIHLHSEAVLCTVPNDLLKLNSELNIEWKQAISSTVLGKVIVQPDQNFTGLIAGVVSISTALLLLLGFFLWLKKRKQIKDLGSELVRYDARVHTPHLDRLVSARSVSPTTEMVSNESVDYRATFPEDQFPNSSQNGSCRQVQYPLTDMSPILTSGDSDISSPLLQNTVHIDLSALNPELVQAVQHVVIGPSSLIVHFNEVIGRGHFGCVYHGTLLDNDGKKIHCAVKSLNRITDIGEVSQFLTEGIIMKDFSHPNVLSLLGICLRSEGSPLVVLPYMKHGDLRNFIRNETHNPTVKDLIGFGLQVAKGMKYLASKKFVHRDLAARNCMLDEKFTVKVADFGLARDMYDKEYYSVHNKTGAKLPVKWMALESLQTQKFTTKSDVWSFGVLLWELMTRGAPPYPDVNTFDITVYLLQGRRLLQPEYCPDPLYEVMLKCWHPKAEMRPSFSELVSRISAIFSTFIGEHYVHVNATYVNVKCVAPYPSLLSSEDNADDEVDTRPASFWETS

HuL2G7: humanized L2G7 anti-HGF mAb; heavy and light chains SEQ ID NO:1 and 2
inhibition of tumor growth (FIG. 1) [1]: partially inhibited tumor growth

HGF: 102 kDa heterodimeric polypeptide growth factor, ligand of cMet
Kd (cMet receptor): 0.2 nM
Kd [2]: 1 nM

C#Cc1cccc(Nc2ncnc3cc(OCCOC)c(OCCOC)cc23)c1 [erlotinib, N-(3-ethynylphenyl)-6,7-bis(2-methoxyethoxy)-4-quinazolinamine]
inhibition of growth of xenografts (FIG. 2) (U87EGFRvIII xenografts): only modestly inhibited growth of the tumors
prolongation of survival (FIG. 3) [3]: slightly but significantly prolonged survival
